The subject of this test is ATF4 luciferase reporter in HEK293T cells. Kind of test: ATF4-Luc assay (ATF4 luciferase reporter, tunicamycin-treated HEK293T cells). The class given is cell-based, human. The settings on record: Homo sapiens, HEK-293T; HEK293T cells carrying the ATF4 luciferase reporter, 1 μg/mL tunicamycin, 7 hours. On the technique in general: A reporter such as luciferase makes a cellular process visible.
On to `O=C(CCOc1cccc(Cl)c1)NC12CC(NC(=O)COc3ccc(Cl)c(F)c3)(C1)C2` [Compound 147, N-{3-[2-(4-chloro-3-fluorophenoxy)acetamido]bicyclo[1.1.1]pentan-1-yl}-3-(3-chlorophenoxy)propanamide], for which the EC50 (commonly the concentration that produces a half-maximal response) fell in the range of 50 to 250 nM. As to `O=C(CCCOc1cccc(Cl)c1)NC12CC(NC(=O)COc3ccc(Cl)c(F)c3)(C1)C2` [Compound 148, N-{3-[2-(4-chloro-3-fluorophenoxy)acetamido]bicyclo[1.1.1]pentan-1-yl}-4-(3-chlorophenoxy)butanamide], the EC50 is 50 to 250 nM. For the compound `O=C(COCCc1ccc(F)cc1)NC12CC(NC(=O)COc3ccc(Cl)c(Cl)c3)(C1)C2` [Compound 149, 2-(3,4-dichlorophenoxy)-N-(3-{2-[2-(4-fluorophenyl)ethoxy]acetamido}-bicyclo[1.1.1]pentan-1-yl)acetamide], the EC50 lay within 10 to 50 nM.

On to `O=C(COCCc1cccc(F)c1)NC12CC(NC(=O)COc3ccc(Cl)c(Cl)c3)(C1)C2` [Compound 150, 2-(3,4-dichlorophenoxy)-N-(3-{2-[2-(3-fluorophenyl)ethoxy]acetamido}-bicyclo[1.1.1]pentan-1-yl)acetamide], for which the EC50 lay in the range of 10 to 50 nM.

With `O=C(COCCc1cccc(Cl)c1)NC12CC(NC(=O)COc3ccc(Cl)c(Cl)c3)(C1)C2` [Compound 151, 2-[2-(3-chlorophenyl)ethoxy]-N-{3-[2-(3,4-dichlorophenoxy)acetamido]-bicyclo[1.1.1]pentan-1-yl}acetamide], the EC50 was below 10 nM. In the case of `Cc1cccc(CCOCC(=O)NC23CC(NC(=O)COc4ccc(Cl)c(Cl)c4)(C2)C3)c1` [Compound 152, 2-(3,4-dichlorophenoxy)-N-(3-{2-[2-(3-methylphenyl)ethoxy]-acetamido}bicyclo[1.1.1]pentan-1-yl)acetamide], the EC50 lay in the range of 50 to 250 nM. Turning to `Cc1cccc(COCC(=O)NC23CC(NC(=O)COc4ccc(Cl)c(Cl)c4)(C2)C3)n1` [Compound 153, 2-(3,4-dichlorophenoxy)-N-(3-{2-[(6-methylpyridin-2-yl)methoxy]acetamido}bicyclo[1.1.1]pentan-1-yl)acetamide], the concentration giving a half-maximal response (EC50) is 50 to 250 nM. Turning to `Cc1ccc(CCOCC(=O)NC23CC(NC(=O)COc4ccc(Cl)c(Cl)c4)(C2)C3)cc1` [Compound 154, 2-(3,4-dichlorophenoxy)-N-(3-{2-[2-(4-methylphenyl)ethoxy]acetamido}-bicyclo[1.1.1]pentan-1-yl)acetamide], the EC50 is 250 to 500 nM. For `O=C(COCCc1ccc(Cl)cc1)NC12CC(NC(=O)COc3ccc(Cl)c(Cl)c3)(C1)C2` [Compound 155, 2-[2-(4-chlorophenyl)ethoxy]-N-{3-[2-(3,4-dichlorophenoxy)acetamido]bicyclo-[1.1.1]pentan-1-yl}acetamide] the value was 10 to 50 nM; for `O=C(COCc1ccc(Cl)cc1)NC12CC(NC(=O)COc3ccc(Cl)c(Cl)c3)(C1)C2` [Compound 156, 2-[(4-chlorophenyl)methoxy]-N-{3-[2-(3,4-dichlorophenoxy)acetamido]-bicyclo[1.1.1]pentan-1-yl}acetamide], 10 to 50 nM.

Regarding `O=C(COCc1ccc(F)cc1)NC12CC(NC(=O)COc3ccc(Cl)c(Cl)c3)(C1)C2` [Compound 157, 2-(3,4-dichlorophenoxy)-N-(3-{2-[(4-fluorophenyl)methoxy]acetamido}-bicyclo[1.1.1]pentan-1-yl)acetamide], the EC50 was in the range of 10 to 50 nM.

As for `O=C(COCc1cccc(Cl)c1)NC12CC(NC(=O)COc3ccc(Cl)c(Cl)c3)(C1)C2` [Compound 158, 2-[(3-chlorophenyl)methoxy]-N-{3-[2-(3,4-dichlorophenoxy)acetamido]-bicyclo[1.1.1]pentan-1-yl}acetamide], the EC50 was below 10 nM. Consider `N#Cc1ccc(COCC(=O)NC23CC(NC(=O)COc4ccc(Cl)c(Cl)c4)(C2)C3)cc1` [Compound 159, 2-[(4-cyanophenyl)methoxy]-N-{3-[2-(3,4-dichlorophenoxy)acetamido]-bicyclo[1.1.1]pentan-1-yl}acetamide], for which the EC50 fell in the range of 50 to 250 nM.

These data come from patent US20240166652A1, “MODULATORS OF THE INTEGRATED STRESS PATHWAY” (Calico Life Sciences LLC, priority 2017, published 2024).
